Values joined by “and” are separate entries in the source; they are usually repeats but may differ in a detail not shown here. Equal entries are not always repeated.
How the values were obtained:
[1] = molecular target: T1, Soluble Aβ(1-40) (Homo sapiens, UniProt P05067); assay: BASST (Beta-Amyloid Self-Seeding, Thioflavin T): inhibitors of self-seeded amyloid fibril growth; format: biochemical; details: 30 μM soluble Aβ(1-40), 37° C., 3 to 5 hours, thioflavin T fluorescence
T1 construct: Soluble Aβ(1-40)—2.2 mg/mL in deionized H2O
T1 sequence (P05067 672-711 limits assumed): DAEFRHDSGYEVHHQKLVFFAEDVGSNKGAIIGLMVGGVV
Protocol: • 1) Prepare reaction mixture above by mixing components and storing on ice. • 2) Pipet 14.5 μL of reaction mixture into each of 50 wells on a polypropylene U-bottom 96-well microtiter plate on ice (Costar 3794). • 3) Add 1.7 μL of diluted compound to be tested to each well in a column of eight, including solvent control. Serial 3-fold dilutions from 1 mM (100 μM final) in assay buffer-urea=7 dilutions+zero. Each 96-well plate can therefore accommodate 11 samples+1 Congo Red control (0.039-5 μM final in 2-fold steps). • 4) Seal the plate with aluminum film (Beckman 538619) and incubate for 10 minutes on ice. • 5) Raise the temperature to 37° C. and incubate for 3 to 5 hours (depending on the lot of the peptide). • 6) Remove the aluminum film and add 200 μL/well of ice cold assay buffer with urea, collecting the radiolabeled fibrils by vacuum filtration through 0.2-μm pore size GVWP filters in 96-well plates (Millipore MAGV […], Bedford, Mass.). Determine the radioactivity of the filters using standard methods well-known to those skilled in the art. BASST (Beta-Amyloid Self-Seeding, Thioflavin T) An assay for inhibitors of self-seeded amyloid fibril growth Methods: Materials: Stock Solutions: Assay Buffer-50 mM sodium phosphate, pH 7.5, 100 mM NaCl, 0.02% NaN3, 1 M urea (filter and store at 4° C.) Soluble Aβ(1-40)-2.2 mg/mL in deionized H2O (store in aliquots at -20° C., keep on ice when thawed) will self-seed after 1 week storage. Typically, the solution should be stored until no lag phase is seen in the assay. Final assay conditions: 30 μM soluble Aβ(1-40) in deionized water in assay buffer. Compound to be tested is dissolved in DMSO, typically 5 to 50 mM stock, such that the final concentration of DMSO is <1% v/v in the assay. Assay: Reaction mixture for 50 assays (on ice) comprised of 1 μL of soluble Aβ(1-40)+13.5 μL assay buffer per assay. The following are the amounts of the components of the reaction mixture that result in each of the 50 assay wells. 50 μL soluble Aβ(1-40) 675 μL assay buffer Assay Method • 1) Prepare the reaction mix above by mixing the components and storing on ice. • 2) Pipet 14.5 μL of reaction mixture into each of 50 wells of a polystyrene U-bottom 96-well microtiter plate (Coming 25881-96) on ice. • 3) Add 1.7 μL of diluted compound to be tested to each well in a column of eight, including solvent control. Serial 3-fold dilutions from 1 mM (100 μM final) in assay buffer-urea=7 dilutions+zero. Each 96-well plate can therefore accommodate 11 samples+1 Congo Red control (0.039-5 μM final in 2-fold steps). • 4) Seal the plate with aluminum film and incubate for 10 minutes on ice. • 5) Raise the temperature to 37° C. and incubate for 3 to 5 hours (depends on the lot of the peptide). • 6) Remove the aluminum film and add 250 μL/well of 5 μM thioflavin T (ThT) [T-3516, Sigma-Aldrich] in 50 mM glycine-NaOH, pH 8.5. Read fluorescence on a plate reader (ex=440 nm/20 nm; em=485 nm/20 nm) within 5 minutes. BAPA (Beta-Amyloid Peptide Aggregation)

[2] = molecular target: T2, Aβ (1-40) peptide (Homo sapiens, UniProt P05067); assay: BAPA (Beta-Amyloid Peptide Aggregation, pH 6.0), filtration endpoint; format: biochemical; details: Aβ(1-40) 33 μM, pH 6.0, 2 to 4 hours, room temperature
T2 construct: Aβ (1-40) peptide in 20% HFIP
T2 sequence (P05067 672-711 limits assumed): as above
Protocol: • 1) Prepare the reaction mix above by mixing the components and storing on ice. • 2) Pipet 14.5 μL of reaction mixture into each of 50 wells of a polystyrene U-bottom 96-well microtiter plate (Coming 25881-96) on ice. • 3) Add 1.7 μL of diluted compound to be tested to each well in a column of eight, including solvent control. Serial 3-fold dilutions from 1 mM (100 μM final) in assay buffer-urea=7 dilutions+zero. Each 96-well plate can therefore accommodate 11 samples+1 Congo Red control (0.039-5 μM final in 2-fold steps). • 4) Seal the plate with aluminum film and incubate for 10 minutes on ice. • 5) Raise the temperature to 37° C. and incubate for 3 to 5 hours (depends on the lot of the peptide). • 6) Remove the aluminum film and add 250 μL/well of 5 μM thioflavin T (ThT) [T-3516, Sigma-Aldrich] in 50 mM glycine-NaOH, pH 8.5. Read fluorescence on a plate reader (ex=440 nm/20 nm; em=485 nm/20 nm) within 5 minutes. BAPA (Beta-Amyloid Peptide Aggregation) This assay is used to provide a measure of inhibition by a compound against the aggregation behavior of the β-amyloid peptide. The purpose of this assay is to provide a higher volume method of assaying the amount of β-amyloid aggregation using an endpoint assay based on filtration. In this assay, hexafluoroisopropanol (HFIP) is used to break down the initial amyloid peptide to a monomer state and use a concentration of 33 μM which is high enough so that aggregation will occur at pH 6.0 in several hours. Methods: Beta-Amyloid Peptide Aggregation, pH 6.0 (BAPA) In a 96-well plate (Costar 3794), we add 25 μL 50 mM phosphate buffer, pH 6.0, 10 μL 0.5 mg/mL Aβ (1-40) peptide in 20% HFIP+0.1 μL/assay radioiodinated ^125I Aβ (1-40) [^125I Aβ(1-40)], and 1 μL of the compound to be tested starting at 50 mM with a concentration of DMSO<1%. Then, we incubate for 2 to 4 hours at room temperature. We stop the reaction with 200 μL of 50 mM phosphate buffer, pH 6.0, and filter it through a 0.2 μm 96-well filter plate (Millipore MAGU […]). We wash the filter plate with 100 μL of the same phosphate buffer. Aggregation was detected on a Microbeta counter after impregnating the filters with Meltilex (1450-441) and is corrected for background.

Row | IC50 [1] | IC50 [2] | Compound
1 | 40 µM | 33 µM | CCCCCN(CCCCC)C1Cc2ccc(Nc3ccc([N+](=O)[O-])cc3C(=O)O)cc2C1 (stereo not drawn) [Example 1, 2-[(2-N,N-di-n-pentylamino)-indan-5-yl]amino-5-nitro-benzoic Acid]
2 | 30 µM | 165 µM | COc1ccc(Nc2ccc3c(c2)CC(NCc2ccc(Cl)c(Cl)c2)C3)c(C(=O)O)c1 (stereo not drawn) [Example 5, 2-[2-(3,4-Dichlorobenzylamino)-indan-5-ylamino]-5-methoxy-benzoic acid]
3 | 21 µM and > 100 µM | 118 µM | CCCCCN(CCCCC)C1Cc2ccc(Nc3ccc(C)cc3C(=O)O)cc2C1 (stereo not drawn) [Example 6, 2-(2-Dipentylamino-indan-5-yl-amino)-5-methyl-benzoic acid]
4 | 8 µM | 118 µM | CCCCCN(CCCCC)C1Cc2ccc(Nc3ccc(C(=O)O)cc3[N+](=O)[O-])cc2C1 (stereo not drawn) [Example 7, 4-(2-Dipentylamino-indan-5-yl-amino)-3-nitro-benzoic Acid]
5 | 30 µM | > 100 µM | O=C(O)c1cc([N+](=O)[O-])ccc1Nc1ccc2c(c1)CC(NCc1ccc(F)cc1)C2 (stereo not drawn) [Example 10, 2-[2-(4-Fluorobenzylamino)-indan-5-ylamino]-5-nitro-benzoic acid]
6 | > 100 µM | 5 µM | CCCCCNC1Cc2ccc(Nc3ccc([N+](=O)[O-])cc3C(=O)O)cc2C1 (stereo not drawn) [Example 12, 2-[2-(n-Pentylamino)-indan-5-ylamino]-5-nitro-benzoic acid]
